# Results published in patent publication US7687489B2, “Agent for treatment of cerebral ischemic diseases” (Ono Pharmaceutical Co., Ltd., priority 2001, dated 2010).
# What was measured:
# dogs = settings: dog, in vivo, 100 mg/kg
# Description: The toxicity of the astrocyte function-improving agent of the present invention is sufficiently very low and has been confirmed to be safe enough for pharmaceutical use.
# [1] = system: thrombin-induced focal cerebral ischemic model; experiment: Thrombin-induced focal cerebral ischemic model: survival and neurological symptom score; assay type: in vivo, male Wistar rats
# Experimental: Twenty male Wistar rats (8-weeks age) were used as one group. The rats were anesthetized with halothane, followed by incision and then subjected to carotid artery shunting. A polyethylene catheter containing thrombin (10 international units) was catheterized into the carotid artery, and […] of blood was sucked and reserved in the catheter for 10 minutes. Then, thrombus formed in the catheter was infused into the carotid artery together with thrombin (J. Cereb. Blood Flow Metab., 17, 123 (1997)).
# The neurological symptoms of said rats were scored according to the method as described in Brain Res., 452, 323 (1988). The evaluation of score was carried out at 6 hours, 24 hours, 48 hours and 72 hours after infusion of thrombin, and the scores were accumulated. The survival period was determined by monitoring surviving or dead rats at intervals of one hour for the first 72 hours after the infusion of thrombin.
# From forty minutes after thrombin infusion, t-PA (Activacin 100,000 international units, product of Kyowa Hakko Kogyo Co., Ltd.) was continuously administered in an amount of 33 μL/min to the anesthetized rats for 15 minutes. (R)-2-propyloctanoic acid (hereinafter referred to as compound A) in an amount of 10 mg/mL/kg was administered through tail vein of the rats three times at 6 hours, 24 hours and 48 hours after the infusion of thrombin.
# [2] = accumulated score, rats surviving 72 h, average ± standard error
smiles,measurement,setting,value
"CCCCCC[C@@H](CCC)C(=O)O [Compound A, (R)-2-propyloctanoic acid]",Death after single intravenous administration,dogs,no death was observed
same,Survival rate after 72 hours,"[1]; 72 hours after thrombin infusion, 20 rats per group, * p<0.05 vs control (Log-rank test)",60.0%*^)
same,No. of surviving rats,"[1]; 72 hours after thrombin infusion, 20 rats per group, t-PA infused from 40 min for 15 min, compound A 10 mg/mL/kg i.v. at 6, 24, 48 h",12
same,"Neurological symptom score, 0 to 6 hours",[1]; [2],3.4 ± 0.1
same,"Neurological symptom score, 0 to 24 hours",[1]; [2],3.3 ± 0.1
same,"Neurological symptom score, 0 to 48 hours",[1]; [2],3.3 ± 0.1
same,"Neurological symptom score, 0 to 72 hours",[1]; [2],3.2 ± 0.2
